This assay deals with human OX2R (Homo sapiens (Human), UniProt O43614). Briefly: IPOne (IP-1) assay in CHO cells expressing human OX2R. It is filed as cell-based. The note with it: for Emax: CHO, read-out: Emax (%); for Emax / Emax (%): percentage of mean max effect of a reference compound at 1 uM (100% activity by comparison to Orexin A), human OX2R; for IC50: CHO cells expressing human OX2R, IP-One detection, 2 hours incubation, EC50 = inflection point of four parameter logistic fit, read-out: hOX2R_IP_IC50. From the text: The utility of the compounds in accordance with the present invention as orexin receptor OX1R and/or OX2R agonists may be readily determined without undue experimentation by methodology well known in the art. Both the OX1R and/or OX2R G-coupled protein receptors (GPCRs) couple through the Gαq signaling pathway, which ultimately promotes calcium mobilization via inositol triphosphate (IP3) production. The half-life of IP-3 is relatively short, being rapidly metabolized to inositol monophosphate (IP-1), which can be readily detected using a commercially available assay kit (IP-One; Cisbio; cat #621PAPEC) coupled with a cell line expressing the target receptor(s) of interest. The utility of the compounds in accordance with the present invention as orexin receptor OX1R and/or OX2R agonists may be determined utilizing this assay.
human OX2R, sequence (O43614 whole entry): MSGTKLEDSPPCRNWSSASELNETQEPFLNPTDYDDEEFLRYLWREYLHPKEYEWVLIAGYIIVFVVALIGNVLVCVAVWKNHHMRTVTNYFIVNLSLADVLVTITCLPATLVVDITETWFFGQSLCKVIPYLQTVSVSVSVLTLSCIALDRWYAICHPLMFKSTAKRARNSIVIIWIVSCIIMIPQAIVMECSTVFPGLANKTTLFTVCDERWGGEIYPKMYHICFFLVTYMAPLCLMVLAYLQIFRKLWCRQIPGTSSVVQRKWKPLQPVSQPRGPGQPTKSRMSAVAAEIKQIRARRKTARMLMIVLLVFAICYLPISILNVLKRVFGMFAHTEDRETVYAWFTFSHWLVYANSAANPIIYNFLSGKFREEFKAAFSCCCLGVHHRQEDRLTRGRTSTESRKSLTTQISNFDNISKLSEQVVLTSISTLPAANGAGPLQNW
In a typical experiment, the OX1 and OX2 receptor agonist activity is determined in accordance with the following general experimental method. Chinese hamster ovary (CHO) cells expressing human OX1R and/or the human OX2R were grown in Iscove's modified DMEM containing glutaMAX™, 1% G418, 100 U/mL penicillin, 100 μg/mL streptomycin and 10% heat-inactivated qualified fetal bovine serum (FBS). The OX2R cells were seeded at 10,000 cells/well/50 μL and the OX1R cells were seeded at 20,000 cells/well/50 μL into 384-well white tissue culture plates (Greiner; cat #781080). All cell/media reagents were from GIBCO-Invitrogen Corp. The seeded cell plate(s) were incubated at 37° C. with 5% CO2 and 85% humidity for 20-24 hours. On the day of the assay, assay-ready compound plates were prepared using an acoustic liquid handler (ECHO; Labcyte), which dispensed sufficient volume of test compound stock (10 mM in DMSO) or 100% DMSO to prepare 10 point, ½-log dilutions in a final volume of 202.5 nL/well in all test wells of a 384-well diamond plate (Labcyte). Following completion of assay-ready plates, importantly, the next three steps were performed with minimal delay: 1) 20 μl of 1× stimulation buffer was added to the compound plate using a Multidrop Combi (small cassette, Thermo Fisher Scientific cat #24073290); 2) culture medium was removed from the cell plate using the Bluewasher plate washer (gentle spin; BlueCatBio); 3) 14 μl of compound/stimulation buffer mixture was added to the cell plate using a Bravo liquid handler (Agilent) prior to incubating cell plates at 37° C. with 5% CO2 and 85% humidity for 1 or 2 hours (OX1R and OX2R, respectively). During this incubation, IP-one detection reagents were prepared (38:1:1 lysis buffer:D2:AB-cryptate reagents). Six μL of mixed detection reagents were added to the cell plate using a Multidrop Combi (small cassette, Thermo Fisher Scientific cat #24073290) and incubated 60 minutes at room temperature in the dark. Fluorescence signal was detected using an Envision plate reader (Perkin Elmer) [LANCE/DELFIA Dual Enh (Em: APC 665; Ex: Cy5 620)].
For each compound, data were fit to a four parameter logistic fit (ActivityBase software) and the EC50 was reported as the inflection point of the resulting curve. Percent effect for each test compound was determined as the percentage of sample raw value/mean max effect, where the mean max effect was derived from the mean raw value of 32 control wells per assay plate (using Orexin A (cat #003-30) at 1 μM for human OX1R and a reference compound at 1 uM with 100% activity previously established by comparison to Orexin A for human OX2R). The intrinsic orexin receptor agonist activity of a compound which may be used in the present invention may be determined by these assays.

The term Emax denotes the greatest response seen or fitted, relative to the assay's reference. As for `CCC(F)(F)COC(=O)N1[C@H](C)C[C@H](NS(C)(=O)=O)[C@@H]1CO[C@H]1CC[C@@]2(c3ncc(F)cn3)C[C@H]2C1` [Example 60, 2,2-difluorobutyl (2R,3S,5R)-2-((((1S,3S,6R)-6-(5-fluoropyrimidin-2-yl)bicyclo[4.1.0]heptan-3-yl)oxy)methyl)-5-methyl-3-(methylsulfonamido)pyrrolidine-1-carboxylate], the Emax was determined as 104%. In the case of `COC(=O)N1[C@H](C)C[C@H](NS(=O)(=O)C(F)(F)F)[C@@H]1CO[C@@H]1CC[C@]2(c3ncc(F)cn3)C[C@@H]2C1` [Example 44, methyl (2R,3S,5R)-2-((((1R,3R,6S)-6-(5-fluoropyrimidin-2-yl)bicyclo[4.1.0]heptan-3-yl)oxy)methyl)-5-methyl-3-((trifluoromethyl)sulfonamido)pyrrolidine-1-carboxylate], the Emax stood at 103%. For the compound `COC(=O)N1[C@H](C)C[C@H](NS(=O)(=O)N(C)C)[C@@H]1COC1CCC2(c3cnccn3)CC2C1` (stereo partly drawn) [Example 13, methyl (2R,3S,5R)-3-((N,N-dimethylsulfamoyl)amino)-5-methyl-2-(((6-(pyrazin-2-yl)bicyclo[4.1.0]heptan-3-yl)oxy)methyl)pyrrolidine-1-carboxylate], the “Emax (%)” value is 82.0%. In the case of `COC(=O)N1[C@H](C)C[C@H](NS(=O)(=O)CC(F)(F)F)[C@@H]1CO[C@H]1CC[C@@]2(c3ncc(F)cn3)C[C@H]2C1` [Example 32, methyl (2R,3S,5R)-2-((((1S,3S,6R)-6-(5-fluoropyrimidin-2-yl)bicyclo[4.1.0]heptan-3-yl)oxy)methyl)-5-methyl-3-((2,2,2-trifluoroethyl)sulfonamido)pyrrolidine-1-carboxylate], the Emax worked out at 103%. For the compound `C[C@@H]1C[C@H](NS(C)(=O)=O)[C@H](CO[C@H]2CC[C@@]3(c4ncc(F)cn4)C[C@H]3C2)N1C(=O)OCC(F)(F)F` [Example 65, 2,2,2-trifluoroethyl (2R,3S,5R)-2-((((1S,3S,6R)-6-(5-fluoropyrimidin-2-yl)bicyclo[4.1.0]heptan-3-yl)oxy)methyl)-5-methyl-3-(methylsulfonamido)pyrrolidine-1-carboxylate], the Emax worked out at 102%. Same read-out and setting: to `COC(=O)N1CC[C@H](NS(C)(=O)=O)[C@@H]1COC1CCC2(c3ncccn3)CC2C1` (stereo partly drawn) [Example 185, methyl (2R,3S)-3-(methylsulfonamido)-2-(((6-(pyrimidin-2-yl)bicyclo[4.1.0]heptan-3-yl)oxy)methyl)pyrrolidine-1-carboxylate] belongs 94.6%; to `CC(OC(=O)N1[C@H](C)C[C@H](NS(C)(=O)=O)[C@@H]1CO[C@H]1CC[C@@]2(c3ncc(F)cn3)C[C@H]2C1)C(F)F` (stereo partly drawn) [Example 63, 1,1-Difluoropropan-2-yl (2R,3S,5R)-2-((((1S,3S,6R)-6-(5-fluoropyrimidin-2-yl)bicyclo[4.1.0]heptan-3-yl)oxy)methyl)-5-methyl-3-(methylsulfonamido)pyrrolidine-1-carboxylate], 104%. As for `CC(C)OC(=O)N1[C@H](C)C[C@H](NS(=O)(=O)CF)[C@@H]1COC1CCC2(c3ncc(Br)cn3)CC2C1` (single isomer, unassigned) [Example 105], the IC50 is 233 nM and the Emax is 91.7%. Regarding `COC(=O)N1[C@H](C)C[C@H](NS(C)(=O)=O)[C@@H]1CO[C@H]1CC[C@@]2(c3ncc(Cl)cn3)C[C@H]2C1` [Example 142, methyl (2R,3S,5R)-2-((((1S,3S,6R)-6-(5-chloropyrimidin-2-yl)bicyclo[4.1.0]heptan-3-yl)oxy)methyl)-5-methyl-3-(methylsulfonamido)pyrrolidine-1-carboxylate], the Emax worked out at 102%. Regarding `COC(=O)N1[C@H](C)C[C@H](NS(C)(=O)=O)[C@@H]1COC1CCC2(c3nc4c(F)ccc(F)c4s3)CC2C1` (stereo partly drawn) [Example 71, methyl (2R,3S,5R)-2-(((6-(4,7-difluorobenzo[d]thiazol-2-yl)bicyclo[4.1.0]heptan-3-yl)oxy)methyl)-5-methyl-3-(methylsulfonamido)pyrrolidine-1-carboxylate], the Emax was 57.9%. As for `COC(=O)N1[C@H](C)C[C@H](NS(C)(=O)=O)[C@@H]1COC1CCC2(c3ncc(C)cn3)CC2C1` (stereo partly drawn) [Example 159, methyl (2R,3S,5R)-5-methyl-2-(((6-(5-methylpyrimidin-2-yl)bicyclo[4.1.0]heptan-3-yl)oxy)methyl)-3-(methylsulfonamido)pyrrolidine-1-carboxylate], the Emax was determined as 98.1%. In the case of `COC(=O)N1[C@H](C)C[C@H](NS(C)(=O)=O)[C@@H]1CO[C@@H]1CC[C@]2(c3ncc(Cl)cn3)C[C@@H]2C1` [Example 141, methyl (2R,3S,5R)-2-((((1R,3R,6S)-6-(5-chloropyrimidin-2-yl)bicyclo[4.1.0]heptan-3-yl)oxy)methyl)-5-methyl-3-(methylsulfonamido)pyrrolidine-1-carboxylate], the Emax is 98.7%. As for `C[C@@H]1C[C@H](NS(C)(=O)=O)[C@H](CO[C@H]2CC[C@@]3(c4ncc(F)cn4)C[C@H]3C2)N1C(=O)O[C@H]1COC[C@@H]1F` [Example 56, (3S,4S)-4-fluorotetrahydrofuran-3-yl (2R,3S,5R)-2-((((1S,3S,6R)-6-(5-fluoropyrimidin-2-yl)bicyclo[4.1.0]heptan-3-yl)oxy)methyl)-5-methyl-3-(methylsulfonamido)pyrrolidine-1-carboxylate], the Emax worked out at 104%. On to `CC(C)OC(=O)N1[C@H](C)C[C@H](NS(=O)(=O)C(F)F)[C@@H]1COC1CC[C@]2(c3ncc(F)cn3)CC2C1` (stereo partly drawn) [Example 110], for which the “Emax (%)” value amounted to 100.9%. Turning to `COC(=O)N1[C@H](C)C[C@H](NS(=O)(=O)N(C)C)[C@@H]1CO[C@@H]1CC[C@]2(c3ncc(F)cn3)C[C@@H]2C1` (single isomer, unassigned) [Example 165], the IC50 was 3.9 nM and the Emax was determined as 101%.

On to `COC(=O)N1CC[C@H](NS(C)(=O)=O)[C@@H]1CO[C@H]1CC[C@@]2(c3ncccn3)C[C@H]2C1` (single isomer, unassigned) [Example 24], for which the IC50 was 238 nM and the “Emax (%)” value is recorded as 99.8%.

As for `COC(=O)N1[C@@H]2CCC[C@@H]2[C@H](NS(=O)(=O)C2CC2)[C@@H]1COC1CCC2(c3ncc(F)cn3)CC2C1` (stereo partly drawn) [Example 128, methyl (2R,3S,3aS,6aR)-3-(cyclopropanesulfonamido)-2-(((6-(5-fluoropyrimidin-2-yl)bicyclo[4.1.0]heptan-3-yl)oxy)methyl)hexahydrocyclopenta[b]pyrrole-1(2H)-carboxylate], the Emax is 100%. `CC(C)OC(=O)N1[C@H](C)C[C@H](NS(=O)(=O)CF)[C@@H]1CO[C@@H]1CC[C@]2(c3ncc(Br)cn3)C[C@@H]2C1` (single isomer, unassigned) [Example 104]: the IC50 worked out at 34.5 nM and the Emax was found to be 102%. The matching figures for `COC(=O)N1[C@H](C(F)F)C[C@H](NS(=O)(=O)CF)[C@@H]1CO[C@H]1CC[C@@]2(c3ncc(Cl)cn3)C[C@H]2C1` (single isomer, unassigned) [Example 115]: 1.1 nM and 103%. For the compound `CC(C)OC(=O)N1[C@H](C)C[C@H](NS(=O)(=O)C(F)F)[C@@H]1COC1CCC2(c3ncc(F)cn3)CC2C1` (single isomer, unassigned) [Example 92], the IC50 came to 775 nM and the “Emax (%)” value was determined as 73.2%. As to `COC(=O)N1CC[C@H](NS(C)(=O)=O)[C@@H]1COC1CCC2(c3ncccn3)CC2C1` (stereo partly drawn) [Example 21, methyl (2R,3S)-3-(methylsulfonamido)-2-(((6-(pyrimidin-2-yl)bicyclo[4.1.0]heptan-3-yl)oxy)methyl)pyrrolidine-1-carboxylate], the “Emax (%)” value was 94.6%.

These data come from patent US11680060B2, “Bicycloheptane pyrrolidine orexin receptor agonists” (Merck Sharp & Dohme LLC, priority 2020, dated 2023).
